“And” between values parts separate entries of the source, which are not always exact repeats. Equal entries are not always repeated.
Test system: LPA1
Assay: In-vivo PET imaging in cynomolgus monkeys, lung SUV and % displacement
Parameters: species or system cynomolgus monkey
Conditions: healthy cynomolgus monkeys, listed as [^18F]-(1S,3S)-3-(6-(5-((((4-(fluoro)butyl)(methyl)carbamoyl)oxy)methyl)-1-meth))
Protocol: [^18F]-(1S,3S)-3-((6-(5-((((4-(fluoro)butyl)(methyl)carbamoyl)oxy)methyl)-1-methyl-1H-1,2,3-triazol-4-yl)-2-methylpyridin-3-yl)oxy)cyclohexane-1-carboxylic acid was tested as an LPA1 PET radioligand to validate the target engagement of LPA1 antagonist used in normal healthy cynomolgus monkeys and to support future clinical use of this agent as a PET radioligand. In this experiment, the specific binding to LPA1, PET imaging in normal healthy cynomolgus monkeys (n=3) was performed. PET images were acquired at baseline and again at after oral administration of an LPA1 antagonist (3, 10, and 30 mg/kg) or vehicle solution (0.5% Methocel A4M: 0.1% Tween 80 (Polysorbate 80): 99.4% Water) only. The oral dosing time of LPA1 antagonist or vehicle was 3 hours prior to [^18F]-labeled antagonist injection. Cynomolgus monkeys on study were fasted beginning the morning of the imaging day. Veterinary Scientists induced initial anesthesia pre-op cocktail of 0.02 mg/kg Atropine, and 5 mg/kg Telazol, 0.1 mg/kg Hydromorphone IM. […] Vital signs were continuously monitored throughout the imaging study. […] After returning to a conscious state, the monkey was transferred to an isolation room with food and water until the radioactivity was decayed to background levels. […]

Cc1nc(-c2nnn(C)c2COC(=O)N(C)CCCC[18F])ccc1O[C@H]1CCC[C@H](C(=O)O)C1 [Example 16]
SUV in Lung (60-90 min) (individual baseline scans): 0.307 and 0.428 and 0.333 and 0.273 and 0.356 and 0.379 and 0.403 and 0.459
average SUV at baseline for individual animals (lung, mean of baseline scans per animal): 0.398 and 0.321 and 0.391

Source: patent publication US20210379210A1, “RADIOLIGANDS FOR IMAGING THE LPA1 RECEPTOR” (BRISTOL-MYERS SQUIBB COMPANY, priority 2018, published 2021)
